The record followed here is ChEMBL document CHEMBL4834420, “Projected Dose Optimization of Amino- and Hydroxypyrrolidine Purine PI3Kδ Immunomodulators” (J Med Chem, 2021).

pIC50: −log10 of the molar value.

In data set [1] the target is PI3-kinase p110-delta/p85-alpha (Homo sapiens, UniProt O00329). As to the kind of experiment: Inhibition of N-terminal His6-tagged recombinant full length human p110delta/untagged recombinant full length human p85alpha expressed in baculovirus infected Sf21 insect cells using PIP2 as substrate preincubated for 15 mins followed by substrate addition and measured after 1 hr by HTRF assay. On the technique in general: TR-FRET usually uses a lanthanide donor and a delayed reading to cut background.

A short description of data set [2]: Inhibition of adenosine transporter in human HeLa cells assessed as reduction in [3H]adenosine uptake preincubated for 30 mins followed by [3H]adenosine addition and measured after 60 mins. In kind it is cell-based.
The nature of data set [3]: Lipophilicity, log D of the compound by HPLC analysis. The data set is classed as physicochemical.
Data set [4] is described as follows: Volume of distribution in Wistar Han rat. In kind it is ADME. To be noted: in vivo.
The nature of data set [5]: Unbound volume of distribution in Wistar Han rat. In kind it is ADME. To be noted: in vivo.
Data set [6] is described as follows: Half-life in Wistar Han rat. In kind it is ADME. To be noted: in vivo.
Data set [7] can be described thus: Plasma clearance in Wistar Han rat at 0.05 mg/kg, iv or 1 mg/kg, po. The data set is classed as ADME, organism-based.
Data set [8] is described as follows: Intrinsic clearance in Wistar Han rat at 0.05 mg/kg, iv or 1 mg/kg, po. The data set is classed as ADME, organism-based. As to conditions: in vivo.
Data set [9] concerns the target T1, Phosphatidylinositol 4,5-bisphosphate 3-kinase catalytic subunit delta isoform (Homo sapiens, UniProt O00329).
T1 sequence (O00329 whole entry): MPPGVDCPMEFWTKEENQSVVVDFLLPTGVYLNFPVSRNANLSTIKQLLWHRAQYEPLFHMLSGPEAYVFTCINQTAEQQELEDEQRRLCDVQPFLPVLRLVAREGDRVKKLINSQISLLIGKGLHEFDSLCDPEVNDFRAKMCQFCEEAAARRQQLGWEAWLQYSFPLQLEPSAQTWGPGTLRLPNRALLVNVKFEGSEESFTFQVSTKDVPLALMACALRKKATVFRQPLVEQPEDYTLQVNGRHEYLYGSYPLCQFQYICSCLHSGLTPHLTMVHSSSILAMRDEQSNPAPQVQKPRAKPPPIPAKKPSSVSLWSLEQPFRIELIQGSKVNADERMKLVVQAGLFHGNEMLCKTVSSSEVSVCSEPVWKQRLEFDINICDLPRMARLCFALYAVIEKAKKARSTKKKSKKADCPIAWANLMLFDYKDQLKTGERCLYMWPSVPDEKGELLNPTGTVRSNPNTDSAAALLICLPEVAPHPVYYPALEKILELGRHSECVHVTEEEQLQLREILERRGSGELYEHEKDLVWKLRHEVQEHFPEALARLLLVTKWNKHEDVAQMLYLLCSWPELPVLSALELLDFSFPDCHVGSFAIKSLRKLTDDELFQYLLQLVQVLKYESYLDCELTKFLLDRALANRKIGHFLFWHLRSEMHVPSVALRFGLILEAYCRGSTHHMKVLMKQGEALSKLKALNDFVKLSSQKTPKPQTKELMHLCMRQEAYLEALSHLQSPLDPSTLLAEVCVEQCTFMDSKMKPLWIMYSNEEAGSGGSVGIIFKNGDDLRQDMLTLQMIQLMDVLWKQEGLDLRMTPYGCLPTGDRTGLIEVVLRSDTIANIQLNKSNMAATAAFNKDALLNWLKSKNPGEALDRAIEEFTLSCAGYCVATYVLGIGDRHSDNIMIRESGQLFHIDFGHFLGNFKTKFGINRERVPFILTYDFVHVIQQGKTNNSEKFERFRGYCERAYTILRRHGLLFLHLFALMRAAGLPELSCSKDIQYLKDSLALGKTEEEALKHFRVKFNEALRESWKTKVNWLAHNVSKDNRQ
As to the kind of experiment: Inhibition of PI3Kdelta in human Ramos cells assessed as reduction in anti-IgM-antibody-induced phosphorylation of AKT at Ser473 residue preincubated for 20 mins followed by anti-IgM antibody stimulation and measured after 30 mins by alphascreen assay. In kind it is cell-based. (In general: In Alpha technology, singlet oxygen from a donor bead excites a nearby acceptor bead.)

A short description of data set [10]: Plasma clearance in Beagle dog at 0.05 mg/kg. The data set is classed as ADME, organism-based, Canis lupus familiaris.
A short description of data set [11]: Intrinsic clearance in Beagle dog at 0.05 mg/kg. The data set is classed as ADME, organism-based, Canis lupus familiaris. To be noted: in vivo.
Data set [12] can be described thus: Volume of distribution in Beagle dog. To be noted: in vivo. The data set is classed as ADME, Canis lupus familiaris.
A short description of data set [13]: Unbound volume of distribution in Beagle dog. In kind it is ADME, Canis lupus familiaris. To be noted: in vivo.
A short description of data set [14]: Half-life in Beagle dog. The data set is classed as ADME, Canis lupus familiaris. As to conditions: in vivo.
Data set [15] concerns the target T1, Phosphatidylinositol 4,5-bisphosphate 3-kinase catalytic subunit delta isoform. As to the kind of experiment: Inhibition of PI3Kdelta in human whole blood assessed as reduction in anti-CD79b antibody-induced CD69 expression preincubated for 60 mins followed by anti-CD79b antibody stimulation and measured after 3 hrs by FACS analysis. In kind it is tissue-based.

A short description of data set [16]: Apparent permeability in pig LLC-PK1 cells. In kind it is ADME, cell-based, Sus scrofa.

Sequence of PI3-kinase p110-delta/p85-alpha (P27986 whole entry, one chain of several): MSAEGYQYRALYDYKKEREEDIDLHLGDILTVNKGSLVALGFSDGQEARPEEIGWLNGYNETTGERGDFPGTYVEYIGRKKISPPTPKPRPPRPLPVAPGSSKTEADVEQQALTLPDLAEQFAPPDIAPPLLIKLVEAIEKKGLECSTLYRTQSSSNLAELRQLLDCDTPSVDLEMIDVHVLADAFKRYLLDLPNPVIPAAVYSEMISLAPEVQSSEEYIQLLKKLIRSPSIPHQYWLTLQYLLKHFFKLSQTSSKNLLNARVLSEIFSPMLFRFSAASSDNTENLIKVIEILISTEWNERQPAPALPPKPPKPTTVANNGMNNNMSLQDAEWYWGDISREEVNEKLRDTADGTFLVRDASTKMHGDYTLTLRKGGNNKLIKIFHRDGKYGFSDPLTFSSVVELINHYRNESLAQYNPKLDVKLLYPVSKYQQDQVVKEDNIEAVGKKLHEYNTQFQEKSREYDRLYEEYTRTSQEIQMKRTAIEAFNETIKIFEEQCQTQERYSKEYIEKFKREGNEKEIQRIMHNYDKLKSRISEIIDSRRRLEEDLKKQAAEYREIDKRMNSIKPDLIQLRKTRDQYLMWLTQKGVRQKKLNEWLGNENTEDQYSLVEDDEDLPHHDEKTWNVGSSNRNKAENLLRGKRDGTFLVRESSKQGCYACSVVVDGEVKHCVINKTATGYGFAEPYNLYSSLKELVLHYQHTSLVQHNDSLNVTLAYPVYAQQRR

The term pIC50 denotes the negative decadic logarithm of the IC50, by convention in mol/L. As usually defined, the logD is the decadic logarithm of the distribution of all forms, ionised or not, between an organic phase and buffer at a given pH. Low values mean a more hydrophilic compound, high ones a more lipophilic compound. By Vd is commonly meant a proportionality between amount in the body and measured concentration, not a real space. High values mean wide distribution into tissue, low ones little distribution into tissue. Usually half-life stands for how long it takes for the measured level to halve. Higher therefore signals slow decline. `CCn1c(-c2cnc(C)nc2)nc2c(N[C@H]3CCN(C(=O)C4CCOC4)C3)ncnc21` (stereo partly drawn): the pIC50 in [1] is 8.80; in data set [2], < 5.00. The same molecule yielded a logD in data set [3] of 0.6. Besides, in data set [4], the Vd was 0.7 L/kg. In data set [5], this molecule showed a Vdu of 2.3 L/kg. Moreover, the half-life in data set [6] is 36 min. In data set [7], this molecule registered a clearance of 18 mL/min/kg. The CL in data set [8] worked out at 74 mL/min/kg.
`CCn1c(-c2ccc(C(F)(F)F)nc2)nc2c(O[C@H]3CCN(C(=O)C4CC4)C3)ncnc21`: the pIC50 in data set [1] is 8.29; in data set [9], 7.31; in data set [2] it was 5.25. Moreover, the logD in data set [3] was 2.3. For the same molecule, the Vd in data set [4] turned out to be 0.7 L/kg. Moreover, the Vdu in [5] was determined as 8.3 L/kg. The molecule further showed a half-life in [6] of 42 min. Moreover, in [7], the clearance is 15 mL/min/kg. The molecule also came in with a CL in [8] of 240 mL/min/kg.
`CCn1c(-c2cnc(C)nc2)nc2c(O[C@H]3CCN(C(=O)C4CCC4)C3)ncnc21`: the pIC50 in data set [1] is 8.92; in [9] it was 7.85; in data set [2], 5.11. Besides, in [3], the log distribution coefficient (logD) is 1.3. The values for the Vd in [4] and in data set [12] were 0.6 L/kg and 1 L/kg, respectively. For the same molecule, the Vdu was 4 L/kg in data set [5] and 1.4 L/kg in data set [13]. The half-life in data set [6] was 18 min; in [14] it was 66 min. The clearance in data set [10] was 12 mL/min/kg; in data set [7] it was 28 mL/min/kg. Also, the CL in data set [11] amounted to 27 mL/min/kg; in data set [8] it was 270 mL/min/kg.
Turning to `CCn1c(-c2cnc(C)nc2)nc2c(N[C@H]3CCN(C(=O)C4CC(F)(F)C4)C3)ncnc21`, the pIC50 in data set [1] was 8.66; in data set [9], 7.89; in data set [2], 5.42. This molecule also returned a logD in data set [3] of 1.5. This molecule also had a Vd in data set [4] of 0.9 L/kg. Further, in [5], the Vdu is 18 L/kg. Moreover, the half-life in [6] was 24 min. In data set [7], this molecule returned a clearance of 26 mL/min/kg. The CL in [8] was 760 mL/min/kg.
`CCn1c(-c2cnc(C)nc2)nc2c(O[C@H]3CCN(C(=O)C4CCOC4)C3)ncnc21` (stereo partly drawn): the figures for the pIC50 in [1] and in data set [2] were 8.22 and < 5.00, respectively. The molecule also came in with a log distribution coefficient (logD) in [3] of 0.7. The Vd in data set [4] was determined as 0.5 L/kg; in data set [12], 0.7 L/kg. Also, the Vdu in [5] and in data set [13] was 0.9 L/kg in each case. Besides, the half-life in [6] is 84 min; in data set [14], 228 min. The clearance in data set [10] was 3 mL/min/kg; in data set [7], 6.2 mL/min/kg. The CL in data set [11] worked out at 4.2 mL/min/kg; in data set [8], 12 mL/min/kg.
Take `CCn1c(-c2cnc(C)nc2)nc2c(O[C@H]3CCN(C(=O)C4CC(F)(F)C4)C3)ncnc21`: the pIC50 is 8.42 in [1], 7.49 in data set [9], 5.00 in data set [2] and 7.08 in [15]. In addition, the logD in data set [3] came out at 1.5. Also, the Vd came to 0.5 L/kg in [4] and 1.4 L/kg in data set [12]. Also, the Vdu in data set [5] was found to be 3 L/kg; in data set [13], 2.5 L/kg. In addition, the results for the half-life in [6] and in data set [14] were 84 min and 48 min, respectively. Besides, the results for the clearance in data set [10] and in [7] were 23 mL/min/kg and 6 mL/min/kg, respectively. In addition, the CL in data set [11] worked out at 170 mL/min/kg; in data set [8], 28 mL/min/kg.
Broadly, the Papp is the rate of passage across a membrane or cell layer, normalised by area and donor concentration. `CCC(=O)N1CC[C@H](Oc2ncnc3c2nc(-c2cnc(C)nc2)n3CC)C1`: the pIC50 in [2] is < 5.00. For the same molecule, in data set [16], the apparent permeability (Papp) amounted to 21 ×10⁻⁶ cm/s. This molecule also gave a pH-dependent lipophilicity (logD) in [3] of 0.8. Further, the Vd in [4] is 1.2 L/kg; in [12], 1.9 L/kg. In addition, the Vdu amounted to 2.4 L/kg in data set [5] and 2.7 L/kg in [13]. Moreover, the half-life in data set [6] was 72 min; in [14], 234 min. Also, the clearance in [10] stood at 6.1 mL/min/kg; in [7] it was 12 mL/min/kg. The CL in data set [11] was found to be 11 mL/min/kg; in [8] it was 31 mL/min/kg.
As to `CCn1c(-c2cnc(C)nc2)nc2c(N[C@H]3CCN(C(=O)c4cocn4)C3)ncnc21`, the pIC50 in data set [9] is 7.09. Further, in [3], the logD worked out at 0.6. This molecule yielded a Vd in [4] of 0.6 L/kg. Further, in data set [5], the Vdu is 6.1 L/kg. This molecule gave a half-life in [6] of 42 min. For the same molecule, the clearance in data set [7] stood at 13 mL/min/kg. This molecule also showed a CL in [8] of 150 mL/min/kg.
